Results reported in PubChem BioAssay (NCI).
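All cell lines were grown in 96-well plates and treated with compound for 48 hours. TGI marks complete inhibition of growth.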

Legend:
Assay in all cases: growth of human tumour cells (NCI), 48 h
[1] = test system: MOLT-4 leukemia
[2] = test system: BT-549 breast
[3] = test system: OVCAR-8 ovarian
[4] = test system: NCI-H460 lung
[5] = test system: SW-620 colon
[6] = test system: ACHN renal
[7] = test system: NCI/ADR-RES ovarian
[8] = test system: A498 renal
[9] = test system: K-562 leukemia
[10] = test system: KM12 colon
[11] = test system: SK-MEL-5 melanoma
[12] = test system: HCT-116 colon
[13] = test system: RXF 393 renal
[14] = test system: EKVX NSCLC
[15] = test system: MCF7 breast
[16] = test system: CCRF-CEM leukemia
[17] = test system: HL-60(TB) leukemia
[18] = test system: HT29 colon
[19] = test system: HOP-92 NSCLC

SMILES	TGI [1] [µM]	TGI [2] [µM]	TGI [3] [µM]	TGI [4] [µM]	TGI [5] [µM]	TGI [6] [µM]	TGI [7] [µM]	TGI [8] [µM]	TGI [9] [µM]	TGI [10] [µM]	TGI [11] [µM]	TGI [12] [µM]	TGI [13] [µM]	TGI [14] [µM]	TGI [15] [µM]	TGI [16] [µM]	TGI [17] [µM]	TGI [18] [µM]	TGI [19] [µM]
COC(=O)[C@]12CSC[C@H]1C[C@H](c1ccccc1OC)N2	> 100	> 100	> 100	> 100	> 100	> 100	> 100	> 100	> 100	> 100	> 100	> 100	> 100	> 100	> 100	> 100			
CCC(=O)N1NC(=O)C(CC)(CC)C1=O	> 100	> 100	> 100	> 100	> 100	> 100	> 100		> 100	> 100	> 100	> 100	> 100	> 100	> 100	> 100	> 100	> 100	
Cc1nc2ccccc2c(=O)n1NC(=O)c1ccc([N+](=O)[O-])cc1	> 100	> 100	> 100	> 100	> 100	> 100		> 100	> 100	> 100	> 100	> 100	> 100	> 100	> 100	> 100	> 100	> 100	> 100
O1C2C1C1OC1C1OC1C1OC21 (stereo not given)	> 100	> 100	> 100			> 100	> 100	> 100	> 100	> 100	> 100	> 100		> 100	> 100	> 100		> 100	> 100
CCCCCC[C@H]1CC(=O)C2CCCC[C@@]23CC[C@H](CCl)N13 (stereo not given in full) (tested in a mixture with another compound)			64.6	> 100		> 100		> 100	> 100	> 100	50.7	> 100		> 100	96.9	90.5	46.5	> 100	79.6
Cc1cnc(-c2c[nH]c3ccccc23)nc1-c1c[nH]c2ccccc12	28.4	67.7	22.7	14.8	30.2	10	> 100	7.03	26	15.6	20.5	16.4		19.3	19.1	4.92	25.1	14.7	7.21
ClCCN1CCOC1=Nc1ccc2c(c1)CCCC2	39.9		17.3	61.8	61.2	28.1	51.9	23	> 100	32	7.38	26.8	22.6	42.3		35.7	17.1	33.1	30.7
